“And” between values parts separate entries of the source, which are not always exact repeats. Equal values may be shown once. Toxic doses and inconclusive results are not listed.
Tested on: BDF1 mice, intracerebral L1210 leukemia, survival T/C
Experiment: NCI In Vivo Anticancer Drug Screen. Data for tumor model L1210 Leukemia (intracerebral) in B6D2F1 (BDF1) mice
Details: endpoint: mean survival time, higher = longer survival
In short: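 Tumour was transplanted, animals received compound or vehicle, then survival in each group was measured and treated divided by control.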

[1] = dose: 15.0 mg/kg/injection, schedule: Q01DX001 (ip), vehicle: other
[2] = dose: 24.0 mg/kg/injection, schedule: Q01DX001 (ip), vehicle: other

O=NN(CCF)C(=O)NC1CCS(=O)(=O)CC1
T/C (dose: 2.5 mg/kg/injection, schedule: Q01DX001 (ip), vehicle: other): 111 % of control
T/C (dose: 2.9 mg/kg/injection, schedule: Q01DX001 (ip), vehicle: other): 108 % of control and 114 % of control
T/C (dose: 3.75 mg/kg/injection, schedule: Q01DX001 (ip), vehicle: other): 118 % of control
T/C (dose: 4.8 mg/kg/injection, schedule: Q01DX001 (oral), vehicle: other): 181 % of control
T/C (dose: 5.0 mg/kg/injection, schedule: Q01DX001 (ip), vehicle: other): 124 % of control
T/C (dose: 6.0 mg/kg/injection, schedule: Q01DX001 (ip), vehicle: other): 121 % of control
T/C (dose: 7.0 mg/kg/injection, schedule: Q01DX001 (ip), vehicle: other): 165 % of control
T/C (dose: 7.5 mg/kg/injection, schedule: Q01DX001 (ip), vehicle: other): 163 % of control
T/C (dose: 10.0 mg/kg/injection, schedule: Q01DX001 (ip), vehicle: other): 183 % of control
T/C (dose: 11.0 mg/kg/injection, schedule: Q01DX001 (ip), vehicle: other): 191 % of control
T/C (dose: 11.0 mg/kg/injection, schedule: Q01DX001 (oral), vehicle: other): 200 % of control and 315 % of control
T/C (dose: 12.0 mg/kg/injection, schedule: Q01DX001 (ip), vehicle: other): 150 % of control and 214 % of control
T/C [1]: 202 % of control
T/C (dose: 16.0 mg/kg/injection, schedule: Q01DX001 (ip), vehicle: other): 284 % of control
T/C (dose: 20.0 mg/kg/injection, schedule: Q01DX001 (ip), vehicle: other): 322 % of control
T/C (dose: 21.0 mg/kg/injection, schedule: Q01DX001 (oral), vehicle: other): 477 % of control and 662 % of control
T/C [2]: 341 % of control and 410 % of control and 463 % of control
T/C (dose: 30.0 mg/kg/injection, schedule: Q01DX001 (ip), vehicle: other): 348 % of control
T/C (dose: 40.0 mg/kg/injection, schedule: Q01DX001 (ip), vehicle: other): 305 % of control
T/C (dose: 40.0 mg/kg/injection, schedule: Q01DX001 (oral), vehicle: other): 456 % of control and 486 % of control
T/C (dose: 48.0 mg/kg/injection, schedule: Q01DX001 (ip), vehicle: other): 354 % of control
T/C (dose: 80.0 mg/kg/injection, schedule: Q01DX001 (oral), vehicle: other): 86 % of control

S=C=NCCc1ccccc1
T/C (dose: 12.5 mg/kg/injection, schedule: Q01DX009 (ip), vehicle: saline with Tween-80): 343 % of control
T/C (dose: 25.0 mg/kg/injection, schedule: Q01DX009 (ip), vehicle: saline with Tween-80): 93 % of control
T/C (dose: 50.0 mg/kg/injection, schedule: Q01DX009 (ip), vehicle: saline with Tween-80): 95 % of control

CN(N=O)C(N)=O
T/C (dose: 18.0 mg/kg/injection, schedule: Q01DX001 (ip), vehicle: saline): 102 % of control
T/C (dose: 36.0 mg/kg/injection, schedule: Q01DX001 (ip), vehicle: saline): 110 % of control
T/C (dose: 72.0 mg/kg/injection, schedule: Q01DX001 (ip), vehicle: saline): 152 % of control

CC(=O)OCC1OC(n2cnc3c(=S)nc[nH]c32)C(OC(C)=O)C1OC(C)=O (centres undefined)
T/C (dose: 25.0 mg/kg/injection, schedule: Q01DX Z (ip), vehicle: carboxymethylcellulose (CMC)): 112 % of control and 117 % of control
T/C (dose: 100.0 mg/kg/injection, schedule: Q01DX Z (ip), vehicle: carboxymethylcellulose (CMC)): 157 % of control
T/C (dose: 200.0 mg/kg/injection, schedule: Q01DX Z (ip), vehicle: carboxymethylcellulose (CMC)): 121 % of control and 87 % of control

CCOC(=O)c1ccc(NC(=O)N(C)N=O)cc1
T/C (dose: 75.0 mg/kg/injection, schedule: Q01DX001 (ip), vehicle: carboxymethylcellulose (CMC)): 94 % of control
T/C (dose: 150.0 mg/kg/injection, schedule: Q01DX001 (ip), vehicle: carboxymethylcellulose (CMC)): 102 % of control
T/C (dose: 300.0 mg/kg/injection, schedule: Q01DX001 (ip), vehicle: carboxymethylcellulose (CMC)): 97 % of control

O=c1cn[nH]c(=O)[nH]1
T/C (dose: 440.0 mg/kg/injection, schedule: Q01DX001 (ip), vehicle: carboxymethylcellulose (CMC)): 102 % of control
T/C (dose: 670.0 mg/kg/injection, schedule: Q01DX001 (ip), vehicle: carboxymethylcellulose (CMC)): 101 % of control
T/C (dose: 1000.0 mg/kg/injection, schedule: Q01DX001 (ip), vehicle: carboxymethylcellulose (CMC)): 101 % of control

O=NN(CCF)C(=O)NC1CCSCC1
T/C (dose: 3.7 mg/kg/injection, schedule: Q01DX001 (ip), vehicle: other): 114 % of control and 123 % of control
T/C [1]: 211 % of control and 223 % of control
T/C [2]: 271 % of control
T/C (dose: 31.0 mg/kg/injection, schedule: Q01DX001 (ip), vehicle: other): 460 % of control and 477 % of control
T/C (dose: 36.0 mg/kg/injection, schedule: Q01DX001 (ip), vehicle: other): 276 % of control
T/C (dose: 54.0 mg/kg/injection, schedule: Q01DX001 (ip), vehicle: other): 303 % of control
T/C (dose: 62.0 mg/kg/injection, schedule: Q01DX001 (ip), vehicle: other): 380 % of control

O=NN(CCCl)C(=O)NC(Cc1ccccc1)C(=O)O (centres undefined)
T/C (dose: 18.0 mg/kg/injection, schedule: Q01DX001 (ip), vehicle: gum acacia): 119 % of control
T/C (dose: 28.0 mg/kg/injection, schedule: Q01DX001 (ip), vehicle: gum acacia): 119 % of control
T/C (dose: 42.0 mg/kg/injection, schedule: Q01DX001 (ip), vehicle: gum acacia): 117 % of control
T/C (dose: 63.0 mg/kg/injection, schedule: Q01DX001 (ip), vehicle: gum acacia): 120 % of control
T/C (dose: 112.0 mg/kg/injection, schedule: Q01DX001 (ip), vehicle: gum acacia): 103 % of control

Reference: PubChem BioAssay AID252 (DTP/NCI, 2004)
